Reference: ChEMBL document CHEMBL5032522, “N-2-(phenylamino) benzamide derivatives as novel anti-glioblastoma agents: Synthesis and biological evaluation” (Eur J Med Chem, 2021)
Activity calls are given as the source filed them. The rule behind the calls is not given here.

Key:
[1] = biological target: T1, Prostaglandin G/H synthase 2 (Homo sapiens, UniProt P35354); test: Inhibition of human recombinant COX-2 using arachidonic acid as substrate preincubated 10 mins followed by substrate addition and measured after 2 mins by ELISA
T1 sequence (P35354 whole entry): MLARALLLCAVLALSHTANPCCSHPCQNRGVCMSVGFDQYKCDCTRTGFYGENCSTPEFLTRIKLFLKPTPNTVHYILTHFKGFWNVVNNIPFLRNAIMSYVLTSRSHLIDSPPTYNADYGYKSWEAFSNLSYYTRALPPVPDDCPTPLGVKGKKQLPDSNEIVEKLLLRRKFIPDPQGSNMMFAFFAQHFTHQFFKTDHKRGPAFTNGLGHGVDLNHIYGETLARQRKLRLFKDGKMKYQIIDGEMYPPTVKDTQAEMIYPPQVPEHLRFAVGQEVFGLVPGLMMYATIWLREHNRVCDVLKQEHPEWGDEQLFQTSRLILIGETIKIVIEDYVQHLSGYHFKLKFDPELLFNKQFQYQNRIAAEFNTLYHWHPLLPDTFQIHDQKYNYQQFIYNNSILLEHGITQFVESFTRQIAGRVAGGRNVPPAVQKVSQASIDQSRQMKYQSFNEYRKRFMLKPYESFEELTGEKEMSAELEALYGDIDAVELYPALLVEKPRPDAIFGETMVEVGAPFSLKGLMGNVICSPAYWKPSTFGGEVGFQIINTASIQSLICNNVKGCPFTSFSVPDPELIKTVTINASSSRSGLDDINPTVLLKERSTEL

[2] = biological target: T2, DNA topoisomerase 1 (Homo sapiens) (UniProt P11387); test: Inhibition of human topoisomerase I using DNA pBR322 as substrate assessed as DNA intercalation at 100 uM incubated for 30 mins by ethidium bromide staining based agarose gel electrophoresis method
T2 sequence (whole entry): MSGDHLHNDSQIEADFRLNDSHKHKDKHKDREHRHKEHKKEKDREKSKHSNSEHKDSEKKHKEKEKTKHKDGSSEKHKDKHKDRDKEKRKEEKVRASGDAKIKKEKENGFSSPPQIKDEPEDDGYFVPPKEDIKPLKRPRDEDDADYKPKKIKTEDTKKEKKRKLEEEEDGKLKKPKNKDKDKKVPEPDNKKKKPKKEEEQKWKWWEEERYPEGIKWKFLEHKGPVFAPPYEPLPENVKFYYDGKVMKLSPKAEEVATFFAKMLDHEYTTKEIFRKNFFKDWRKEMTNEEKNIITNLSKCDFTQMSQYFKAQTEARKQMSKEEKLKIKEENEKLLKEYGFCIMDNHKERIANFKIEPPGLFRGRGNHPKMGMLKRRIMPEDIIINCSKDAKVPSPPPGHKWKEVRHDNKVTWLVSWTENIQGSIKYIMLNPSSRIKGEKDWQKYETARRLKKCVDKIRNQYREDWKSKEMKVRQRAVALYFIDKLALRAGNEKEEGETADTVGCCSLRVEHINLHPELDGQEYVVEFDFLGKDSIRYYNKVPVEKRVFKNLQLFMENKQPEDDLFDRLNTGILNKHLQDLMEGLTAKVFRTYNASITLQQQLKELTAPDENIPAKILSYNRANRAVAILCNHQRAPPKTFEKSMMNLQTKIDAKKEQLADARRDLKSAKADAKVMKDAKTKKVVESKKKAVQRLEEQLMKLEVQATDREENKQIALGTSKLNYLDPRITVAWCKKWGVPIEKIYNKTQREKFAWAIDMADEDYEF

U-87 MG [3] = test: Antiproliferative activity against human U-87 MG cells assessed as inhibition of cell growth measured up to 72 hrs by CCK-8 assay; assay type: functional, cell-based; conditions: U-87MG ATCC, time hrs <=72
U-87 MG [4] = test: Induction of morphological changes in human U-87 MG cells assessed as appearance of rounded and shortened cells at 3.3 uM incubated for 72 hrs by Giemsa staining based light microscopic method; assay type: functional, cell-based; conditions: U-87MG ATCC
U-87 MG [5] = test: Induction of morphological changes in human U-87 MG cells assessed as appearance of spindle cell shape at 3.3 uM incubated for 72 hrs by Giemsa staining based light microscopic method; assay type: functional; conditions: U-87MG ATCC
U-251 [6] = test: Induction of cell cycle arrest in human U-251 cells assessed as reduction in G0/G1 phase accumulation at 10 uM incubated for 72 hrs by propidium iodide/RNase A staining based flow cytometry (reference value: 79.12%); assay type: functional; parameters: scale not given: the % may be the effect or the level left
U-87 MG [7] = test: Inhibition of cell migration in human U-87 MG cells incubated for 24 hrs by crystal violet staining based light microscopic analysis; assay type: functional; conditions: U-87MG ATCC
[8] = Half life in Sprague-Dawley rat at 100 mg/kg, ip measured up to 24 hrs by LC-MS analysis; assay type: ADME, organism-based; conditions: in vivo
[9] = Cmax in Sprague-Dawley rat at 100 mg/kg, ip measured up to 24 hrs by LC-MS analysis; assay type: ADME, organism-based; parameters: route intraperitoneal, dose 100 mg/kg, time <=24; conditions: in vivo
[10] = AUC ( 0 to infinity) in Sprague-Dawley rat at 100 mg/kg, ip measured up to 24 hrs by LC-MS analysis; assay type: ADME, organism-based; parameters: route intraperitoneal, dose 100 mg/kg, time <=24; conditions: in vivo
[11] = Drug concentration in Sprague-Dawley rat brain at 100 mg/kg, ip measured 6 hrs post administration by LC-MS analysis; assay type: ADME, organism-based; conditions: read-out: Ct
C6 [12] = test: Antitumor activity against rat C6 cells inoculated orthotopic Sprague-Dawley rat model assessed as reduction in tumor volume at 100 mg/kg, ip bid administered for 14 days; assay type: functional, organism-based; conditions: time 14.0 day
C6 [13] = test: Antitumor activity against rat C6 cells inoculated orthotopic Sprague-Dawley rat model assessed as tumor growth inhibition at 100 mg/kg, ip bid administered for 14 days by MRI scanner relative to control; assay type: functional; conditions: 336 h, time 14 day, read-out: TGI
U-251 [14] = test: Antiproliferative activity against human U-251 cells assessed as cell survival at <= 1.1 uM measured after 24 hrs by CCK-8 assay; assay type: functional; conditions: dose microM <=1.1
U-87 MG [15] = test: Induction of morphological changes in human U-87 MG cells assessed as appearance of shrunken cell bodies at 3.3 uM incubated for 72 hrs by Giemsa staining based light microscopic method; assay type: functional; conditions: U-87MG ATCC
U-251 [16] = test: Induction of morphological changes in human U-251 cells assessed as appearance of rounded and shortened cells at 3.3 uM incubated for 72 hrs by Giemsa staining based light microscopic method; assay type: functional, cell-based
U-251 [17] = test: Induction of morphological changes in human U-251 cells assessed as appearance of spindle cell shape at 3.3 uM incubated for 72 hrs by Giemsa staining based light microscopic method; assay type: functional
U-251 [18] = test: Induction of morphological changes in human U-251 cells assessed as appearance of shrunken cell bodies at 3.3 uM incubated for 72 hrs by Giemsa staining based light microscopic method; assay type: functional
U-87 MG [19] = test: Induction of cell cycle arrest in human U-87 MG cells assessed as increase in G2 phase accumulation at 10 uM incubated for 72 hrs by propidium iodide/RNase A staining based flow cytometry; assay type: functional; conditions: U-87MG ATCC
[20] = Acute toxicity in ip dosed Kunming mouse assessed as lethal dose measured after 14 days; assay type: organism-based; conditions: in vivo, time 14 day
C6 [21] = test: Antitumor activity against rat C6 cells inoculated orthotopic Sprague-Dawley rat model assessed as reduction in tumor weight at 100 mg/kg, ip bid administered for 14 days by MRI scanner; assay type: functional, organism-based; conditions: time 14.0 day

| Structure (SMILES) | IC50 [1] | inhibition [2] | Activity (U-87 MG [3]) | Activity (U-87 MG [4]) | Activity (U-87 MG [5]) | Activity (U-251 [6]) | inhibition (U-87 MG [7]) | half-life [8] | Cmax [9] | AUC(0-inf) [10] | concentration at 6 h [11] | Activity (C6 [12]) | inhibition in vivo at 100 mg/kg (C6 [13]) | Survival (U-251 [14]) | Activity (U-87 MG [15]) | Activity (U-251 [16]) | Activity (U-251 [17]) | Activity (U-251 [18]) | Activity (U-87 MG [19]) | LD50 at 336 h [20] | also measured |
| --- | --- | --- | --- | --- | --- | --- | --- | --- | --- | --- | --- | --- | --- | --- | --- | --- | --- | --- | --- | --- | --- |
| Cc1c(Cl)cccc1Nc1ccccc1C(=O)Nc1ccc2c(c1)OCO2 | 45 µM | Active | Dose-Dependent Effect | Active | Active | 25.36% | Dose-Dependent Effect | 8.36 h | 8870 ng/mL | 49200 ng·h/mL | 1410 ng/mL | Active | 56.4% | >80% | Active | Active | Active | Active | Active | 750 mg/kg | Activity (C6 [21]): Active |
| COc1ccc(NC(=O)c2ccccc2Nc2cccc(Cl)c2C)cc1 | 33.6 µM | Active | Dose-Dependent Effect | Active | Active | 26.28% | Dose-Dependent Effect | 6.7 h | 8370 ng/mL | 86200 ng·h/mL | 3380 ng/mL | Active | 66.7% | >80% | Active | Active | Active | Active | Active | 300 mg/kg | Activity (C6 [21]): Active |
